Molecular target: T1, MuSK(cyto) (Rattus norvegicus, UniProt Q62838)
T1 sequence (Q62838 529-868): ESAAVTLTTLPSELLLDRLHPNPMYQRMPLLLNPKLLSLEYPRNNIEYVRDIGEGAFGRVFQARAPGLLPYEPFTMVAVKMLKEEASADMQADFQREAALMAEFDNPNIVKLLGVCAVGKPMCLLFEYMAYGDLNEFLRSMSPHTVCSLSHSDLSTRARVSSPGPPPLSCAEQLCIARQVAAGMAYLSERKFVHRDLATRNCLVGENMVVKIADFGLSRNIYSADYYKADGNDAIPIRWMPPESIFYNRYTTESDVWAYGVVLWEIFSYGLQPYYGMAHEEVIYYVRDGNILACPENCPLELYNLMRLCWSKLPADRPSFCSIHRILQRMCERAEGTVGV
Experiment: autophosphorylation, anti-pTyr754 immunoblot
Assay type: biochemical
Settings: 5 mM ATP, 50 mM MgCl2, 25 mM Tris-HCl pH 7.5, 0.5 mM sodium vanadate, 10 mM TCEP, room temperature; MuSK alone, no Dok7

Nc1ncnc2c1ncn2[C@@H]1O[C@H](COP(=O)(O)OP(=O)(O)OP(=O)(O)O)[C@@H](O)[C@H]1O [ATP]
autophosphorylation, anti-pTyr754 immunoblot: With MuSK alone, incubation with Mg-ATP results in a relatively slow rate of autophosphorylation

Reference: article PMC2917201 (Molecular cell, 2010)
